Km data for 2 compounds are collected here from article PMC10156859, “Unveiling an indole alkaloid diketopiperazine biosynthetic pathway that features a unique stereoisomerase and multifunctional methyltransferase” (Nature Communications, 2023).

Read-outs that look alike come from different tables or passages of the source.

For orientation: Km means the substrate concentration at which the rate is half of its maximum.

The test system of the experiment is T1, NozMT.
T1 construct: N-terminal hexahistidine-tagged, codon-optimized synthetic gene in pQE31, E. coli M15(pREP4), Ni-NTA purified
Put plainly: initial rates, HPLC-UV […] nm, Michaelis-Menten fit. Type of experiment: biochemical, Nocardiopsis sp. CMB-M0232. The note with it: 2 mM SAM, 10 μM enzyme, 40 mM Tris pH 7.5, 200 mM NaCl, 1% DMSO, 37 °C.

In the case of `CC(C)=CC[C@]12C[C@@H]3C(=O)N[C@H](Cc4c[nH]c5ccccc45)C(=O)N3[C@H]1Nc1ccccc12` [compound 6, cyclo-D-Trp-C3'-prenyl-D-Trp], the Km (N1' methylation, read-out: apparent average Km) was found to be 146 µM.
Consider `CC(C)=CC[C@]12C[C@@H]3C(=O)N[C@H](Cc4c[nH]c5ccccc45)C(=O)N3[C@H]1N(C)c1ccccc12` [compound 7, cyclo-D-Trp-N1'-methyl-C3'-prenyl-D-Trp], for which the Km (C3 methylation, read-out: apparent Km) worked out at 606 µM.
